Test results as given in paper PMC5937995 (Bioorganic & medicinal chemistry, 2018).
Residues, ends and D or L forms follow the SMILES beside them.

How the values were obtained:
[1] = tested on: human platelets; details: cited from earlier work; for IC50: read-out: potency in P-selectin assay, human platelets
[2] = target: T1, PAR1 (Homo sapiens, UniProt P25116); assay: PAR1
T1 sequence (P25116 22-425): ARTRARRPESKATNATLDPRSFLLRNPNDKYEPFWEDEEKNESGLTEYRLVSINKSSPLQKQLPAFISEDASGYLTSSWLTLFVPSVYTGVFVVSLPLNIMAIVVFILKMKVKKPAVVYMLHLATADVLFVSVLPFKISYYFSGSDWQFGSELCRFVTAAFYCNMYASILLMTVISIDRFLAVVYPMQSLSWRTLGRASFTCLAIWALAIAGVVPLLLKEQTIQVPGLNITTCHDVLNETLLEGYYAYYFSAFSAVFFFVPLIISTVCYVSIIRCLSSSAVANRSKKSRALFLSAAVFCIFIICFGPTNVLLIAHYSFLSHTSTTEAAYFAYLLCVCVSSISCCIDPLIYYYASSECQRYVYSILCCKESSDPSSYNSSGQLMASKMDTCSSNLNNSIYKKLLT

[3] = cited from earlier work
[4] = tested on: PAR1; details: platelet membranes; cited from earlier work
[5] = tested on: cardiac infarct size; details: murine myocardial ischemia-reperfusion injury; cited from earlier work
[6] = Aqueous solubility; format: physicochemical; details: turbid suspensions observed at high concentrations
[7] = tested on: PAR1; details: cited from earlier work
[8] = 5 μM TFLLRN-NH2, EA.hy926 cells

SMILES: CC(C)CC(=O)Nc1cccc(NC(=O)c2ccccc2Br)c1 [CJD-125]
- potency relative to ML161 in platelet P-selectin assay [1]: equipotency
- activity in PAR1 iCa2+ assay (in words) [2, 8]: less potent than ML161 and did not give a good concentration-response
- plasma stability relative to ML161 [3]: improved plasma stability

SMILES: CCCC(=O)Nc1cccc(NC(=O)c2ccccc2N=[N+]=[N-])c1 [DG-5, 2-Azido-N-(3-butyramidophenyl)benzamide]
- activity in PAR1 iCa2+ assay (in words) [2, 8]: only modest activity

SMILES: C#CCCC(=O)NCC[C@H](NC(=O)[C@H](Cc1ccc(F)c(F)c1)NC(=O)Nc1ccc2c(CN3CCCC3)nn(Cc3c(Cl)cccc3Cl)c2c1)C(=O)NCc1ccccc1 [DG-207, N-((S)-4-(Benzylamino)-3-((S)-2-(3-(1-(2,6-dichlorobenzyl)-3-(pyrrolidin-1-ylmethyl)-1H-indazol-6-yl)ureido)-3-(3,4-difluorophenyl)propanamido)-4-oxobutyl)pent-4-ynamide]
- fold less potent than RWJ-58259 [2, 8]: 15 fold

SMILES: CCCCC(=O)Nc1cccc(NC(=O)c2ccccc2Br)c1 [EMG-23, 2-Bromo-N-(3-pentanamidophenyl)benzamide]
- activity in PAR1 iCa2+ assay (in words) [2, 8]: poorly active

SMILES: CCCC(=O)Nc1cccc(NC(=O)c2ccccc2Br)c1 [ML161]
- mode of inhibition of SFLLRN-NH2 ([1]; platelet P-selectin assay): non-competitive inhibitor
- IC50 [1]: 260 nM
- inhibition of [3H]TRAP binding [4]: does not significantly inhibit binding
- cardiac infarct size [5]: significantly decreased
- aqueous solubility [6]: low aqueous solubility

SMILES: C#CCCC(=O)Nc1cccc(NC(=O)c2ccccc2Br)c1 [RR-10, 2-Bromo-N-(3-(pent-4-ynamido)phenyl)benzamide]
- activity in PAR1 iCa2+ assay (in words) [2, 8]: only modest inhibition of PAR1

SMILES: CCCCNc1cccc(NC(=O)c2ccccc2Br)c1 [RR-90]
- IC50 [1]: 340 nM

SMILES: NCC[C@H](NC(=O)[C@H](Cc1ccc(F)c(F)c1)NC(=O)Nc1ccc2c(CN3CCCC3)cn(Cc3c(Cl)cccc3Cl)c2c1)C(=O)NCc1ccccc1 [RWJ-56110]
- mode of inhibition of radiolabeled PAR1 activating peptide binding [7]: competitive inhibitor

SMILES: CC(C)C[C@H](NC(=O)[C@H](CC(C)C)NC(=O)[C@H](Cc1ccccc1)NC(=O)[C@@H](N)[C@@H](C)O)C(=O)N[C@@H](CCCNC(=N)N)C(=O)N[C@@H](CC(N)=O)C(N)=O [TFLLRN-NH2, reference compound] (H-TFLLRN-NH2)
- EC50 [2]: 4800 nM

SMILES: CCOC(=O)N[C@@H]1CC[C@@H]2[C@@H](C1)C[C@H]1C(=O)O[C@H](C)[C@H]1[C@H]2/C=C/c1ccc(-c2cccc(F)c2)cn1 [Vorapaxar, reference compound]
- aqueous solubility [6]: low aqueous solubility
- IC50 [2]: 32 nM
- % Inhibition ([2]; in presence of 5 μM TFLLRN-NH2, EA.hy926 cells): 95%
